Laboratory results from ChEMBL document CHEMBL5634134, “Design, synthesis, and biological evaluation of novel 4,4'-bipyridine derivatives acting as CDK9-Cyclin T1 protein-protein interaction inhibitors against triple-negative breast cancer” (Eur J Med Chem, 2023).
Activity calls are given as the source filed them. The rule behind the calls is not given here.

Columns and labels:
MDA-MB-231 [1] = experiment: Inhibition of colony formation in human MDA-MB-231 cells assessed as reduction in colony number at >=111 nM incubated for 10 days by crystal violet staining based analysis relative to control; format: functional; details: time 10 day
[2] = Cytotoxicity against human L02 cells assessed as inhibition of cell growth incubated for 72 hrs by MTT assay; format: toxicity, cell-based
[3] = Cytotoxicity against HK-2 cells assessed as inhibition of cell growth incubated for 72 hrs by MTT assay; format: toxicity, cell-based; details: human
[4] = Cytotoxicity against human MRC5 cells assessed as inhibition of cell growth incubated for 72 hrs by MTT assay; format: toxicity, cell-based
[5] = Tmax in Sprague-Dawley rat at 50 mg/kg, ip measured afer 24 hrs by LC-MS/MS analysis; format: ADME, organism-based; details: in vivo
[6] = Half life in Sprague-Dawley rat at 50 mg/kg, ip measured afer 24 hrs by LC-MS/MS analysis; format: ADME, organism-based; details: in vivo
[7] = MRT (0 to t) in Sprague-Dawley rat at 50 mg/kg, ip measured afer 24 hrs by LC-MS/MS analysis; format: ADME, organism-based; details: in vivo
MDA-MB-231 [8] = experiment: Inhibition of RNA Polymerase II CTD phosphorylation at ser2 residue in human MDA-MB-231 cells at 1 uM incubated for 24 hrs by Western blotting analysis; format: cell-based
[9] = target: Cyclin-dependent kinase 2 (Homo sapiens) (UniProt P24941); experiment: Binding affinity to CDK2 in human MDA-MB-231 cells asssesed as thermal stabilization at 1 uM incubated for 8 hrs under 45 to 65 degreeC by Western blot analysis; format: cell-based
MDA-MB-231 [10] = experiment: Inhibition of colony formation in human MDA-MB-231 cells assessed as reduction in colony number incubated for 10 days by crystal violet staining based analysis; format: functional, cell-based; details: dose 12-1000 nM, time 10.0 day
MDA-MB-231 [11] = experiment: Induction of apoptosis in human MDA-MB-231 cells assessed as viable cells at 37 nM incubated for 72 hrs by Annexin V-FITC/PI staining based flow cytometry analysis (reference value: 94.81 %); format: functional; details: read-out: Activity
MDA-MB-231 [12] = experiment: Induction of apoptosis in human MDA-MB-231 cells assessed as necrotic cells at 37 nM incubated for 72 hrs by Annexin V-FITC/PI staining based flow cytometry analysis (reference value: 0.49 %); format: functional
MDA-MB-231 [13] = experiment: Induction of apoptosis in human MDA-MB-231 cells assessed as viable cells at 111 nM incubated for 72 hrs by Annexin V-FITC/PI staining based flow cytometry analysis (reference value: 94.81 %); format: functional; details: read-out: Activity
MDA-MB-231 [14] = experiment: Induction of apoptosis in human MDA-MB-231 cells assessed as early apoptotic cells at 111 nM incubated for 72 hrs by Annexin V-FITC/PI staining based flow cytometry analysis (reference value: 0.66 %); format: functional
MDA-MB-231 [15] = experiment: Induction of apoptosis in human MDA-MB-231 cells assessed as early apoptotic cells at 333 nM incubated for 72 hrs by Annexin V-FITC/PI staining based flow cytometry analysis (reference value: 0.66 %); format: functional
MDA-MB-231 [16] = experiment: Induction of apoptosis in human MDA-MB-231 cells assessed as late apoptotic cells at 333 nM incubated for 72 hrs by Annexin V-FITC/PI staining based flow cytometry analysis (reference value: 4.04 %); format: functional
MDA-MB-231 [17] = experiment: Induction of apoptosis in human MDA-MB-231 cells assessed as early apoptotic cells at 1000 nM incubated for 72 hrs by Annexin V-FITC/PI staining based flow cytometry analysis (reference value: 0.66 %); format: functional
MDA-MB-231 [18] = experiment: Antimetastasis activity in human MDA-MB-231 cells assessed as wound closure at 0.1 uM and measured upto 48 hrs by inverted microscope analysis (reference value: 46 %); format: functional
MDA-MB-231 [19] = experiment: Inhibition of cell invasion in human MDA-MB-231 cells at 1000 nM incubated for 24 hrs by crystal violet staining based transwell matrix penetration assay; format: functional
MDA-MB-231 [20] = experiment: Induction of apoptosis in human MDA-MB-231 cells assessed as reduction in Bcl2 level incubated for 24 hrs by Western blot analysis; format: functional, cell-based; details: dose 37-1000 nM
[21] = Toxicity in mouse assessed as median lethal dose administered intraperitoneally for 16 days; details: in vivo, route ip, time 16 day
4T1 [22] = experiment: Antitumor activity against mouse 4T1 cells implanted in athymic BALB/c mouse assessed as reduction in tumor weight at 12.5 to 25 mg/kg, ip administered for 14 days; format: functional, organism-based; details: dose 12.5-25 mg/kg, time 14.0 day
[23] = Toxicity in athymic BALB/c mouse implanted with mouse 4T1 cells assessed as body weight loss at 25 mg/kg, ip administered for 14 days; format: organism-based; details: in vivo, 336 h, time 14 day
[24] = Toxicity in athymic BALB/c mouse implanted with mouse 4T1 cells assessed as spleen tissue damage at 12.5 to 25 mg/kg, ip administered for 14 days; format: organism-based; details: in vivo, 336 h, dose 12.5-25 mg/kg, time 14 day
[25] = Toxicity in athymic BALB/c mouse implanted with mouse 4T1 cells assessed as kidney tissue damage at 12.5 to 25 mg/kg, ip administered for 14 days; format: organism-based; details: in vivo, 336 h, dose 12.5-25 mg/kg, time 14 day
4T1 [26] = experiment: In vivo inhibition of RNA Pol II phosphorylation at ser2 in athymic BALB/c mouse implanted with mouse 4T1 cells at 12.5 to 25 mg/kg, ip administered once daily for 14 days by Western blot analysis; format: functional, organism-based; details: dose 12.5-25 mg/kg, time 14.0 day
4T1 [27] = experiment: Antitumor activity against mouse 4T1 cells implanted in athymic BALB/c mouse assessed as increase in cleaved PARP at 12.5 to 25 mg/kg, ip administered once daily for 14 days by Western blot analysis; format: functional, organism-based; details: dose 12.5-25 mg/kg, time 14.0 day
MDA-MB-231 [28] = experiment: Synergistic antiproliferative activity against human MDA-MB-231 cells assessed as inhibition of cell growth incubated for 48 hrs in presence of varying concentrations of olaparib by MTT assay; format: functional, cell-based; details: dose 0.01-4 µM
MDA-MB-231 [29] = experiment: Inhibition of colony formation in human MDA-MB-231 cells at 20 nM incubated for 10 days by crystal violet staining based analysis; format: functional, cell-based; details: time 10.0 day
MDA-MB-231 [30] = experiment: Inhibition of colony formation in human MDA-MB-231 cells at 20 nM incubated for 10 days in presence of olaparib by crystal violet staining based analysis; format: functional, cell-based; details: time 10.0 day
MDA-MB-231 [31] = experiment: Antiproliferative activity against human MDA-MB-231 cells assessed as decrease in sphere size by measuring sphere diameter at 100 nM incubated for 10 days by confocal laser scanning microscopy (reference value: 508.27 micrometer); format: functional; details: time 10 day
MDA-MB-231 [32] = experiment: Antiproliferative activity against human MDA-MB-231 cells assessed as decrease in sphere size by measuring diameter at 100 nM incubated for 10 days in presence of olaparib by confocal laser scanning microscopy; format: functional; details: time 10 day
MDA-MB-231 [33] = experiment: Effect on C-Myc protein expression in human MDA-MB-231 cells transfected with shCDK9 at 300 nM by Western blot analysis; format: functional, cell-based
MDA-MB-231 [34] = experiment: Induction of apoptosis in human MDA-MB-231 cells transfected with shCDK9 assessed as increase in cleaved PARP expression at 300 nM by Western blot analysis; format: functional, cell-based
[35] = Toxicity in mouse assessed as lethal dose administered intraperitoneally for 16 days by Karber's method; details: in vivo, route ip, time 16 day
[36] = Toxicity in athymic BALB/c mouse implanted with mouse 4T1 cells assessed as reduction in tolerance at 12.5 mg/kg, ip administered for 14 days; format: organism-based; details: in vivo, 336 h, time 14 day

COc1ccc(C(=O)Nc2cc(-c3ccnc(N4CCC(O)CC4)c3)ccn2)cc1
inhibition (INH) (MDA-MB-231 [1]): ~100%
IC50 at 72 h [2]: 756 nM
IC50 at 72 h [3]: 481 nM
IC50 at 72 h [4]: 335 nM
Tmax [5]: 0.5 h
half-life [6]: 1.67 h
MRT last at 24 h [7]: 1.26 h
inhibition (MDA-MB-231 [8]): Active
Activity [9]: inactive
inhibition (MDA-MB-231 [10]): Dose-Dependent Effect
viability at 0.037 µM (MDA-MB-231 [11]): 83.6%
Activity (MDA-MB-231 [12]): 0.17%
viability at 0.111 µM (MDA-MB-231 [13]): 43.6%
Activity (MDA-MB-231 [14]): 21.3%
Activity (MDA-MB-231 [15]): 20.4%
Activity (MDA-MB-231 [16]): 48.6%
Activity (MDA-MB-231 [17]): 14.2%
Activity (MDA-MB-231 [18]): 18%
inhibition (MDA-MB-231 [19]): Active
Activity (MDA-MB-231 [20]): Dose-Dependent Effect
LD50 at 384 h [21]: 750 mg/kg
Activity (4T1 [22]): Active
Activity [23]: Toxic
Activity [24]: Non-Toxic
Activity [25]: Non-Toxic
inhibition (4T1 [26]): Active
Activity (4T1 [27]): Active
Activity (MDA-MB-231 [28]): Dose-Dependent Effect
inhibition (MDA-MB-231 [29]): inactive
inhibition (MDA-MB-231 [30]): Active
Activity (MDA-MB-231 [31]): 429.81 um
Activity (MDA-MB-231 [32]): 310.56 um
Activity (MDA-MB-231 [33]): inactive
Activity (MDA-MB-231 [34]): inactive
LD50 at 384 h [35]: 537 mg/kg
Activity [36]: Non-Toxic
